Structures are written as SMILES.

This is an account of results in a melting point compilation (Tetko et al.).

`O=C(O)C#Cc1ccc(F)cc1F` came in with a melting point of 170 to 172 °C.

As to `CCCOc1ccc2c(c1)OCC(C=O)=C2`, the melting point lay in the range of 55 to 57 °C.

In turn, `Sc1nnc(-c2cccnc2)n1Cc1ccccc1` gave a melting point of 179 to 181 °C.

`CC(NS(=O)(=O)Cc1ccc(CN)cc1)C(N)=O` (configuration not stated) yielded a melting point of 140 to 142 °C.

In turn, `COc1ccc2[nH]c(C(=O)O)cc2c1OC` yielded a melting point of 221 to 223 °C.

As for `N#Cc1ccc(N2CCOC2=O)cc1`, the melting point is 149 to 151 °C.

Compound `O=Cc1cc(Br)ccc1OCC(=O)O` displayed a melting point of 170 to 172 °C.

`CN(C)S(=O)(=O)c1ccc(C#N)cc1` displayed a melting point of 128 to 130 °C.

For the compound `OC(CC1CCCN1)c1cccs1` (configuration not stated), the melting point was in the range of 63 to 65 °C.

In the case of `O=Cc1c[nH]c2cccc(F)c12`, the melting point lay within 169 to 171 °C.

Take `CS(=O)(=O)NCC(=O)O`: the melting point fell in the range of 174 to 176 °C.

`Nc1cnc(Br)cc1C(=O)O` gave a melting point of 256 to 258 °C.

As to `Cc1n[nH]c(N)c1C#N`, the melting point lay within 160 to 162 °C.

`CC(N)c1ccc2[nH]c(=O)[nH]c2c1` (configuration not stated) displayed a melting point of 394 to 396 °C.

`Cc1n[nH]c(C)c1NC(=O)CCl` showed a melting point of 160 to 162 °C.

`Nc1oc2ccccc2c(=O)c1C=O` gave a melting point of 249 to 251 °C.

As to `CC(N)C(=O)Nc1ccc(Cl)cc1` (configuration not stated), the melting point lay within 84 to 86 °C.

In turn, `COc1ccc(Br)cc1C(=O)CBr` registered a melting point of 92 to 94 °C.

For the compound `CCN(CC)S(=O)(=O)c1ccc(C(=O)NCC(=O)O)cc1`, the melting point fell in the range of 143 to 145 °C.

Consider `Cc1ccc2oc(C(=O)O)c(C)c2c1`, for which the melting point lay in the range of 180 to 182 °C.

As for `CNS(=O)(=O)N1CCc2ccccc2C1`, the melting point was in the range of 88 to 90 °C.

Regarding `C1CCC(c2nnn[nH]2)CC1`, the melting point lay within 109 to 111 °C.

In turn, `O=C(c1ccc(O)cc1)N1CCc2sccc2C1` gave a melting point of 200 to 202 °C.

Turning to `CN(C(=O)OC(C)(C)C)c1ccc(C(=N)N)cc1`, the melting point was in the range of 142 to 144 °C.

Take `NCc1cc(Br)c2c(c1)OCO2`: the melting point fell in the range of 49 to 51 °C.

Take `Nc1cccc(CN2CCN(c3ccccn3)CC2)c1`: the melting point fell in the range of 168 to 170 °C.

In turn, `CC(C)C(NC(=O)c1ccccc1)c1nn[nH]n1` (configuration not stated) displayed a melting point of 176 to 178 °C.

`CCC1(O)CCC(N)CC1` (configuration not stated) yielded a melting point of 79 to 81 °C.

For the compound `CCC(=O)N1CCc2cc(C(=O)O)ccc21`, the melting point was in the range of 228 to 230 °C.

`CCOC(=O)c1oc2ccc(OC)cc2c1C` yielded a melting point of 103 to 105 °C.

The compound `CNC(=O)CC(N)=NO` had a melting point of 119 to 121 °C.

`O=c1oc2ccccc2nc1NO` had a melting point of 254 to 256 °C.

In turn, `Cc1cc(C(=O)O)c(C(=O)O)s1` had a melting point of 210 to 212 °C.

`COC(=O)c1nccc(Cl)c1F` showed a melting point of 49 to 51 °C.

In turn, `Cc1cc2cc[nH]c(=O)c2n1C` registered a melting point of 224 to 226 °C.

In turn, `O=C1CC(c2ccccc2F)C(=O)N1` (configuration not stated) had a melting point of 97 to 99 °C.

Consider `Nc1ccc(S(=O)(=O)Nc2ccc(Cl)c(Cl)c2)cc1`, for which the melting point was 223 to 225 °C.

Regarding `CC(NC(N)=O)C1CC2CCC1C2` (configuration not stated), the melting point fell in the range of 167 to 169 °C.

Take `Nc1cc(F)ccc1N1C(=O)C2CCCCC2C1=O` (configuration not stated): the melting point is 174 to 176 °C.

In turn, `C=CC(=O)Nc1cccc(C(F)(F)F)c1` displayed a melting point of 79 to 81 °C.

`O=C(O)c1cn(Cc2cccnc2)nn1` yielded a melting point of 206 to 208 °C.

Consider `CCOc1cc(Cl)ccc1C#N`, for which the melting point was 81 to 83 °C.

As to `Cc1noc(C2(C)CCN(C(=O)OC(C)(C)C)CC2)n1`, the melting point lay within 80 to 82 °C.

Compound `COC(=O)c1cc([N+](=O)[O-])c(C)cc1C` registered a melting point of 57 to 59 °C.

For the compound `COC(=O)C(=O)CC(=O)c1ccccc1`, the melting point lay within 58 to 60 °C.

With `COc1ccc2c(c1)CC(C(=O)O)CO2` (configuration not stated), the melting point fell in the range of 120 to 122 °C.

For `Cc1ccc(-c2cc(C(=O)O)c3c(C)noc3n2)c(C)c1`, the melting point lay within 222 to 224 °C.

In the case of `CN(C)c1ccc(S(=O)(=O)N(C)C)cc1N`, the melting point fell in the range of 143 to 145 °C.

Compound `O=C(O)Cn1c(=O)n(C2=CCCCC2)c2ccccc21` showed a melting point of 145 to 147 °C.

Take `O=C1CCCN1CO`: the melting point lay within 79 to 81 °C.

Take `CCOC(=O)c1sc2nc(Cc3ccccn3)[nH]c(=O)c2c1C`: the melting point is 231 to 233 °C.

In turn, `Cc1csc(CC(N)=S)n1` gave a melting point of 126 to 128 °C.

The compound `O=C(O)CSc1cc(Cl)ccc1Cl` gave a melting point of 129 to 131 °C.

The compound `CC(C)(C)c1ccc(-c2nnc(CCl)o2)cc1` gave a melting point of 65 to 67 °C.

Compound `Cn1cncc1C#N` showed a melting point of 48 to 50 °C.

With `CN1CCc2nc3ccccc3c(C(=O)O)c2C1`, the melting point was in the range of 254 to 256 °C.

For `COc1ccc(S(=O)(=O)N2CCC(=NO)CC2)cc1`, the melting point fell in the range of 164 to 166 °C.

For the compound `Nc1nc(C2CC2)c(Cc2ccccc2Cl)s1`, the melting point lay within 127 to 129 °C.

In turn, `COCCN(CCOC)S(=O)(=O)c1ccc(C(=O)O)cc1` had a melting point of 147 to 149 °C.

`CCc1ccc(C(=O)c2ccc([N+](=O)[O-])cc2)o1`: the melting point was in the range of 76 to 78 °C.

The compound `Nc1cc(Cl)c(NC(=O)c2cnccn2)c(Cl)c1` showed a melting point of 195 to 197 °C.

`Cc1oc(-c2cccs2)nc1CCl`: the melting point lay within 65 to 67 °C.

`c1ccc(Cn2ccnc2)nc1` yielded a melting point of 63 to 65 °C.

With `CC(=O)CC(=O)Nc1cccc(C)c1`, the melting point was 57 to 59 °C.

For the compound `O=[N+]([O-])c1ccc(F)c(-n2cnnn2)c1`, the melting point was 101 to 103 °C.

As to `O=c1[nH]c(S)nc2scc(-c3ccc(F)cc3)c12`, the melting point lay in the range of 200 to 202 °C.

Take `Fc1cc(CCl)c2c(c1)COC(c1ccsc1)O2` (configuration not stated): the melting point lay within 77 to 79 °C.

For the compound `CCNC(C(=O)O)c1ccc(F)c(F)c1` (configuration not stated), the melting point lay within 277 to 279 °C.

The compound `O=C(O)C1CC(=O)N(c2ccccc2Br)C1` (configuration not stated) showed a melting point of 177 to 179 °C.

`Cc1ccc2c(c1)C(=O)CCC2` yielded a melting point of 28 to 30 °C.

`COCCN(C(C)=O)c1nc(CCl)cs1` came in with a melting point of 98 to 100 °C.

In turn, `Fc1ccc2c(Cl)ccnc2c1` showed a melting point of 71 to 73 °C.

In the case of `Nc1ccc(S(=O)(=O)Nc2cccc(F)c2)cc1`, the melting point lay in the range of 168 to 170 °C.

`Nc1nnc(-c2cccc(Br)c2)s1`: the melting point lay in the range of 216 to 218 °C.

`CC(C)(NC(=O)NCc1cccc(Br)c1)C(=O)O`: the melting point fell in the range of 159 to 161 °C.

As to `COc1ccc([N+](=O)[O-])cc1S(=O)(=O)Cl`, the melting point lay within 85 to 87 °C.

`Cn1ccnc1CC#N` returned a melting point of 39 to 41 °C.

Consider `O=C(CCl)NC(=O)NCC(F)(F)F`, for which the melting point was in the range of 154 to 156 °C.

Compound `Cc1nc2c3ccccc3nc(Cl)n2n1` came in with a melting point of 140 to 142 °C.

With `O=C(O)COc1ccc(Br)cc1F`, the melting point lay within 106 to 108 °C.

Consider `Clc1csc(Cl)n1`, for which the melting point lay in the range of 42 to 46 °C.

Take `O=C(O)Cc1cc2ccccc2[nH]c1=O`: the melting point was in the range of 278 to 280 °C.

As for `Nc1cc(-c2ccco2)nn1-c1ccc(F)cc1F`, the melting point lay within 120 to 122 °C.

In the case of `COC(=O)c1cc(S(=O)(=O)N2CCOCC2)ccc1Cl`, the melting point is 74 to 76 °C.

In turn, `Nc1ccc(C(=O)N2CCCC2)c(F)c1` returned a melting point of 139 to 141 °C.

The compound `CNCc1cc(Br)ccc1[N+](=O)[O-]` had a melting point of 29 to 31 °C.

The compound `Cn1ncnc1COc1ccc(S(=O)(=O)Cl)cc1` displayed a melting point of 114 to 116 °C.

The melting point is the temperature, or range, at which the solid turns liquid.
